This passage reports Kd and IC50 results from US20130261077A1 (priority 2012, published 2013).

The target of assay [1] is T1, FimH-CRD (Escherichia coli, UniProt P08191).
T1 construct: The first 177 amino acids of the FimH protein; thrombin tag (printed as 'fusion protein with thrombin') (cleaved yes); made in house; host or cells: bacteria (pET21b plasmid)
The experiment in a line: Competitive binding assay by fluorescence polarization, assay 2 (compounds prepared by robotics, plates frozen and thawed). The gist of the method:
(§1)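 Compounds at 0.4 nM–75 μM final (12 points, 3-fold steps, duplicate) compete with a 5 nM Alexa 647 mannoside probe for 60 nM FimH-CRD; 5 h room-temperature incubation in pH 7.0 Tris buffer with 2.5% DMSO, FP read-out, Kd from fitted curves. Assay 1 uses manual dilution, assay 2 robot-made frozen/thawed plates.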

The target in assay [2] is T1, FimH-CRD. Kind of assay: Competitive binding assay by fluorescence polarization, assay 1 (compounds prepared by manual serial dilution). The gist of the method:
as §1
On the technique in general: Fluorescence polarisation rises when a labelled molecule tumbles more slowly, as on binding a larger partner.

T1 sequence (P08191 22-177): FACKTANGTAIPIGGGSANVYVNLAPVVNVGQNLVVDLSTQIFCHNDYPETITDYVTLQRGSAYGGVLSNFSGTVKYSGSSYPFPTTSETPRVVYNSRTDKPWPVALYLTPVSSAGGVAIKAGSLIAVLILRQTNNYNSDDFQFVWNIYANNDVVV

As for `COC(=O)c1ccc(Oc2ccc([C@H]3O[C@H](CO)[C@@H](O)[C@H](O)[C@@H]3O)cc2)cc1` [Compound 54, methyl 4-(4-((2R,3S,4R,5S,6R)-3,4,5-trihydroxy-6-(hydroxymethyl)tetrahydro-2H-pyran-2-yl)phenoxy)benzoate], the Kd at FimH-CRD [1] was 13.2 ± 9.2 nM; at FimH-CRD [2], less than 5 nM. On FimH-CRD [2], this molecule showed a 50% inhibitory concentration (IC50) of 16 nM.
On the same counts, the results for `Cc1nnc(-c2ccc(Oc3cccc([C@H]4O[C@H](CO)[C@@H](O)[C@H](O)[C@@H]4O)c3)cc2)o1` [Compound 60, (2R,3S,4R,5S,6R)-2-(hydroxymethyl)-6-[3-[4-(5-methyl-1,3,4-oxadiazol-2-yl)phenoxy]phenyl]tetrahydropyran-3,4,5-triol] are 10.7 ± 5.3 nM, 8.7 ± 2.1 nM and 31 nM.
As for `COC(=O)c1cc(C(=O)OC)cc(-c2cccc([C@H]3O[C@H](CO)[C@@H](O)[C@H](O)[C@@H]3O)c2)c1` [Compound 62, Dimethyl 3′-((2R,3S,4R,5S,6R)-3,4,5-trihydroxy-6-(hydroxymethyl)tetrahydro-2H-pyran-2-yl)-[1,1′-biphenyl]-3,5-dicarboxylate], the values for the Kd on FimH-CRD [1] and at FimH-CRD [2] were 7.6 ± 2 nM and 5.5 ± 0.4 nM, respectively.
For the molecule `CNC(=O)c1cc(Oc2cccc([C@H]3O[C@H](CO)[C@@H](O)[C@H](O)[C@@H]3O)c2)cc(C(=O)NC)c1` [Compound 64, N1,N3-dimethyl-5-(3-((2R,3S,4R,5S,6R)-3,4,5-trihydroxy-6-(hydroxymethyl)tetrahydro-2H-pyran-2-yl)phenoxy)isophthalamide], on FimH-CRD [1], the Kd was determined as 20.7 ± 16.8 nM. At FimH-CRD [2], the IC50 is 55 nM and the Kd was 15 ± 2.6 nM.
Take `OC[C@H]1O[C@H](c2cc(O)ccc2Cl)[C@@H](O)[C@@H](O)[C@@H]1O` [Compound 68, (2R,3S,4R,5S,6R)-2-(2-chloro-5-hydroxyphenyl)-6-(hydroxymethyl)tetrahydro-2H-pyran-3,4,5-triol]: binding at FimH-CRD [1] was put at a Kd of 35 ± 21.2 nM. At FimH-CRD [2], the IC50 was found to be 22 nM and the affinity, expressed as Kd, was 22.1 ± 10.1 nM.
`OC[C@H]1O[C@H](c2cccc(-c3cc(Cl)cc(Cl)c3)c2)[C@@H](O)[C@@H](O)[C@@H]1O` [Compound 79, (2R,3S,4R,5S,6R)-2-[3-(3,5-Dichlorophenyl)phenyl]-6-(hydroxymethyl)tetrahydropyran-3,4,5-triol]: the Kd on FimH-CRD [1] was 12.8 ± 0.9 nM; on FimH-CRD [2], less than 5 nM.
Consider `Cc1nnc(-c2cccc(-c3ccc([C@H]4O[C@H](CO)[C@@H](O)[C@H](O)[C@@H]4O)cc3)c2)o1` [Compound 130, (2R,3S,4R,5S,6R)-2-(hydroxymethyl)-6-[4-[3-(5-methyl-1,3,4-oxadiazol-2-yl)phenyl]phenyl]tetrahydropyran-3,4,5-triol], for which the Kd on FimH-CRD [1] is 46.2 nM; on FimH-CRD [2], less than 5 nM.
`CC(C)C(=O)Nc1ccc(Oc2cccc([C@H]3O[C@H](CO)[C@@H](O)[C@H](O[C@H]4O[C@H](CO)[C@@H](O)[C@H](O)[C@@H]4O)[C@@H]3O)c2)cc1` [Compound 273, N-[4-[3-[(2R,3R,4R,5R,6R)-3,5-Dihydroxy-6-(hydroxymethyl)-4-[(2R,3S,4S,5S,6R)-3,4,5-trihydroxy-6-(hydroxymethyl)tetrahydropyran-2-yl]oxy-tetrahydropyran-2-yl]phenoxy]phenyl]-2-methyl-propanamide] registered a Kd on FimH-CRD [1] of 21.8 ± 5.2 nM. On FimH-CRD [2], the IC50 is 38 nM and binding was characterised by a dissociation constant (Kd) of 12.1 ± 5.7 nM.
On the same counts, the results for `COC(=O)COc1cccc([C@H]2O[C@H](CO)[C@@H](O)[C@H](O[C@H]3O[C@H](CO)[C@@H](O)[C@H](O)[C@@H]3O)[C@@H]2O)c1` [Compound 286, Methyl 2-[3-[(2R,3R,4R,5R,6R)-3,5-dihydroxy-6-(hydroxymethyl)-4-[(2R,3S,4S,5S,6R)-3,4,5-trihydroxy-6-(hydroxymethyl)tetrahydropyran-2-yl]oxy-tetrahydropyran-2-yl]phenoxy]acetate] are 35.1 ± 16.7 nM, 63 nM and 17.4 ± 4.8 nM.
As to `OC[C@H]1O[C@H](c2cccc(Br)c2)[C@@H](O)[C@@H](O)[C@@H]1O` [Intermediate C, (2R,3S,4R,5S,6R)-2-(3-bromophenyl)-6-(hydroxymethyl)tetrahydro-2H-pyran-3,4,5-triol], the figures for the Kd on FimH-CRD [1] and on FimH-CRD [2] were 27 nM and 24 ± 5 nM, respectively.

As a reminder, the Kd is the concentration at which binding is half-saturated. The low end stands for tighter binding, the high end for weaker binding. The term IC50 denotes the concentration needed to halve the response being measured. Higher therefore signals lower potency.
